Measured values: US10718006B2, “Methods for detecting beta-lactamase-producing bacteria” (priority 2015, dated 2020)

Tests used:
Experiment in all cases: Electrochemical assay with substrate HMRZ-86, liquid cultures
Assay type in all cases: cell-based
[1] = system: E. aerogenes strains; conditions: liquid culture, 30 min with HMRZ-86
Description: (§1) Each cryopreserved strain is cultured in 10 mL of LB medium at 37° C. until the stationary phase is obtained.
(§2) A volume of 50 μL of culture liquid is incubated in the presence of 50 μL of a solution of HMRZ-86 at 0.5 mM in PBS at 37° C. with stirring for 30 min. 40 μL of the reaction mixture is taken and transferred onto the surface of a screen-printed carbon sensor (Dropsens, DRP-110) connected beforehand to a STAT 8000P portable potentiostat (Dropsens) with power supply from the computer's USB port and controlled by the DropView 8400 software. Linear voltammetry measurements are carried out by linear potential scanning from −0.1 V to 1.2 V at a rate of 50 mV·s^−1. The peak current appearing in the potential range +0.2 to +0.55 V vs. Ag/AgCl, associated with hydrolysis of the beta-lactam ring of HMRZ-86, is selected as the analytical response. If the intensity of the peak (i) has a value above 500 nA, the sample contains a strain capable of degrading the C3Gs.
(§3) The electrochemical method of the invention was applied to analysis of a panel of 40 strains producing various β-lactamases and was compared with the R-Lacta™ Test (Biorad), the principle of which is based on qualitative colorimetric detection of the C3G-resistant strains. The results presented in Table 7 were obtained after 30 min of incubation of the bacteria with the substrate HMRZ-86 for both methods. Based on the interpretation of the results proposed by the supplier, the R-Lacta™ Test allows identification of the C3G-resistant strains with a level of agreement of 68%, whereas a level of agreement of 95% was obtained with the electrochemical method of the invention. In contrast to colorimetry, amperometry offers the advantage of measuring a numerical value of current which, on the one hand, avoids any subjective interpretation of the result (intermediate colour), and on the other hand allows traceability of the result.
(§4) Table 7: Comparison of the results obtained with the electrochemical method of the invention for liquid cultures with those obtained with the R-Lacta™ Test implemented according to the supplier's recommendations with isolated colonies. In both cases, the readings were taken after incubation with the substrate HMRZ-86 for 30 min.

[2] = system: E. cloacae strains; conditions: liquid culture, 30 min with HMRZ-86
Description: as §1, §2, §3, §4

[3] = system: E. coli strains producing various β-lactamases; conditions: liquid culture, 30 min with HMRZ-86
Description: as §1, §2, §3, §4

[4] = system: K. oxytoca strain; conditions: K. oxytoca 11779, Low-level penicillinase; liquid culture, 30 min with HMRZ-86
Description: as §1, §2, §3, §4

[5] = system: K. pneumoniae strains; conditions: liquid culture, 30 min with HMRZ-86
Description: as §1, §2, §3, §4

[6] = system: P. aeruginosa strains; conditions: liquid culture, 30 min with HMRZ-86
Description: as §1, §2, §3, §4

[7] = system: P. mirabilis strains; conditions: liquid culture, 30 min with HMRZ-86
Description: as §1, §2, §3, §4

[8] = system: S. marcescens strain; conditions: S. marcescens 11787, Hyperproduced cephalosporinase; liquid culture, 30 min with HMRZ-86
Description: as §1, §2, §3, §4

Question: `CC(C)(ON=C(C(=O)N[C@@H]1C(=O)N2C(C(=O)O)=C(C=Cc3ccc([N+](=O)[O-])cc3[N+](=O)[O-])CS[C@H]12)c1csc(N)n1)C(=O)O.O=C(O)C(F)(F)F` [HMRZ-86, (6R,7R)-trifluoroacetate 7-[[2-(2-amino-4-thiazolyl)-2-[(1-carboxy-1-methylethoxy)imino]acetyl]amino]-1-aza-3-[2-(2,4-dinitrophenyl)ethenyl]-8-oxo-5-thiabicyclo[4.2.0]oct-2-ene-2-carboxylic acid] was tested. Which “Electrochemical assay Intensity” value ([1]; E. aerogenes 11772, Inducible cephalosporinase) did it give?
Answer: 362 nA

Question: What about the “Electrochemical assay Intensity” value ([1]; E. aerogenes 11775, Hyperproduced cephalosporinase) of the same molecule?
Answer: 501 nA

Question: And the “Electrochemical assay Intensity” value ([1]; E. aerogenes 11796, ESBL TEM 24)?
Answer: 1249 nA

Question: What about the “Electrochemical assay Intensity” value ([2]; E. cloacae 11784, Hyperproduced cephalosporinase) of the same molecule?
Answer: 569 nA

Question: What about the “Electrochemical assay Intensity” value ([2]; E. cloacae 11790, Hyperproduced cephalosporinase) of the same molecule?
Answer: 686 nA

Question: What about the “Electrochemical assay Intensity” value ([2]; E. cloacae 11794, Hyperproduced cephalosporinase) of the same molecule?
Answer: 842 nA

Question: What about the “Electrochemical assay Intensity” value ([3]; E. coli 11746, Hyperproduced penicillinase) of the same molecule?
Answer: 380 nA

Question: And the “Electrochemical assay Intensity” value ([3]; E. coli 11748, Inducible cephalosporinase)?
Answer: 424 nA

Question: What about the “Electrochemical assay Intensity” value ([3]; E. coli 11755, Carbapenemase OXA-48 - CTX-M) of the same molecule?
Answer: 3509 nA

Question: What about the “Electrochemical assay Intensity” value ([3]; E. coli 11757, Carbapenemase OXA-48) of the same molecule?
Answer: 625 nA

Question: What about the “Electrochemical assay Intensity” value ([3]; E. coli 11765, Hyperproduced penicillinase) of the same molecule?
Answer: 323 nA

Question: And the “Electrochemical assay Intensity” value ([3]; E. coli 11766, Inducible cephalosporinase)?
Answer: 408 nA

Question: And the “Electrochemical assay Intensity” value ([3]; E. coli 11776, Inducible cephalosporinase)?
Answer: 446 nA

Question: What about the “Electrochemical assay Intensity” value ([3]; E. coli 11780, Hyperproduced penicillinase) of the same molecule?
Answer: 425 nA

Question: And the “Electrochemical assay Intensity” value ([3]; E. coli 11781, Low-level penicillinase)?
Answer: 377 nA

Question: And the “Electrochemical assay Intensity” value ([3]; E. coli 11791, Hyperproduced cephalosporinase)?
Answer: 816 nA

Question: What about the “Electrochemical assay Intensity” value ([3]; E. coli 11810, ESBL CTX-M-1) of the same molecule?
Answer: 2544 nA

Question: And the “Electrochemical assay Intensity” value ([3]; E. coli 11817, ESBL CTX-M-2)?
Answer: 1472 nA

Question: What about the “Electrochemical assay Intensity” value ([3]; E. coli 11818, ESBL CTX-M-1) of the same molecule?
Answer: 3583 nA

Question: And the “Electrochemical assay Intensity” value ([3]; E. coli 11820, ESBL SHV-12)?
Answer: 1249 nA

Question: And the “Electrochemical assay Intensity” value ([3]; E. coli 11828, ESBL CTX-M-27)?
Answer: 2640 nA

Question: And the “Electrochemical assay Intensity” value ([3]; E. coli 11833, ESBL CTX-M-9)?
Answer: 2455 nA

Question: And the “Electrochemical assay Intensity” value ([3]; E. coli 11834, ESBL TEM-12)?
Answer: 418 nA

Question: And the “Electrochemical assay Intensity” value ([3]; E. coli 11863, ESBL CTX-M-14)?
Answer: 2544 nA

Question: And the “Electrochemical assay Intensity” value ([3]; E. coli K12, Beta-lactamase negative)?
Answer: 302 nA

Question: And the “Electrochemical assay Intensity” value [4]?
Answer: 412 nA

Question: What about the “Electrochemical assay Intensity” value ([5]; K. pneumoniae 11754, Carbapenemase OXA-48 - CTX-M) of the same molecule?
Answer: 3520 nA

Question: What about the “Electrochemical assay Intensity” value ([5]; K. pneumoniae 11762, Carbapenemase OXA-48) of the same molecule?
Answer: 476 nA

Question: What about the “Electrochemical assay Intensity” value ([5]; K. pneumoniae 11770, Low-level penicillinase) of the same molecule?
Answer: 365 nA

Question: And the “Electrochemical assay Intensity” value ([5]; K. pneumoniae 11812, ESBL CTX-M-15)?
Answer: 3494 nA

Question: And the “Electrochemical assay Intensity” value ([5]; K. pneumoniae 11839, Carbapenemase KPC-2)?
Answer: 1567 nA

Question: What about the “Electrochemical assay Intensity” value ([5]; K. pneumoniae 11842, Carbapenemase NDM-1) of the same molecule?
Answer: 1257 nA

Question: And the “Electrochemical assay Intensity” value ([6]; P. aeruginosa 11774, Hyperproduced cephalosporinase)?
Answer: 2160 nA

Question: What about the “Electrochemical assay Intensity” value ([6]; P. aeruginosa 11778, Hyperproduced cephalosporinase) of the same molecule?
Answer: 2278 nA

Question: What about the “Electrochemical assay Intensity” value ([6]; P. aeruginosa 11782, Hyperproduced cephalosporinase) of the same molecule?
Answer: 1778 nA

Question: And the “Electrochemical assay Intensity” value ([7]; P. mirabilis 11747, Beta-lactamase negative)?
Answer: 322 nA

Question: And the “Electrochemical assay Intensity” value ([7]; P. mirabilis 11768, Low-level penicillinase)?
Answer: 233 nA

Question: What about the “Electrochemical assay Intensity” value [8] of the same molecule?
Answer: 3922 nA
